# Earlier results, collected in article PMC10046020, “In Silico Screening and Optimization of Cell-Penetrating Peptides Using Deep Learning Methods” (Biomolecules, 2023).
# Conditions: Spreadsheet S1: 150 CPP and 150 non-CPP peptides collected from CellPPD, MLCPP, CPPsite 2.0, Lifetein and other publications; cited from earlier work
# Excerpt: Supplement biomolecules-13-00522-s001.zip/biomolecules-2162660_Supplementary Spreadsheets S1 Test Set.csv, table | column: class || Supplement biomolecules-13-00522-s001.zip/biomolecules-2162660_Supplementary Spreadsheets S2 Train Set.csv, table | column: class
row,Substance,"class (CPP / Non-CPP), Test Set"
1,KALKKLLAKWAAAKALL,CPP
2,RRRRRRRRRETWWETWWTEW,CPP
3,TTPFTIRGPLGNQGRGNPVR,Non-CPP
4,TERQIKIWFQNRRMK,Non-CPP
5,KLAKLAKKLAKLAKGGRRRRRRR,CPP
6,AKRGARSTA,CPP
7,RLHRRLHRRLHRLHRRLHRLHRRLHRRLH,CPP
8,GRKKRRQRRRG,CPP
9,LNSLGYLLGKALAALAKKIL,Non-CPP
10,SRISNRLSSSATRT,Non-CPP
11,KKKKKKKKLLLLLLLL,Non-CPP
12,FLAGLIGGLAKML,Non-CPP
13,HAQKQLSKTSWDFIEGEADDGITYSENIAAFKRIRLR,Non-CPP
14,CKYGRKKRRQRRR,CPP
15,AVNANFGWQDKRFSTFG,Non-CPP
16,KKKKKKKKK,CPP
17,LLIILRRPIRKQAHAHSK,CPP
18,CVCVKTTSLVRPRHI,Non-CPP
19,HTPGNSNKWKHLQENKKGRPRR,CPP
20,CAETCIYIPCFTEAVGCKCKDKVCYKN,Non-CPP
21,GNGEQREMAVSRLRDCLDRQA,CPP
22,DAATARGRGRSAASRPTERPRAPARSASRPRRPVD,CPP
23,RQIKIWFQNRRMKWKKC,CPP
24,AAVALLPAVLLALLAKNNLKECGLY,CPP

row,Substance,"class (CPP / Non-CPP), Test Set"
1,QQPFVQQQQPFVQQ,Non-CPP
2,KKLSECLKRIGDELDN,Non-CPP
3,TERQGKIWFQNRRMK,Non-CPP
4,RRLRHLRHHYRRRWHRFR,CPP
5,KKLSECLKRIGVELDS,Non-CPP
6,GLFLDTLKGLAGKLLQGLKCIKAGCKP,Non-CPP
7,GRCTKSIPPICFPA,CPP
8,PKKGSKKAVTKAQKKDGA,CPP
9,YGFMELFDDVTAIFSIDHCQEEYYEQMANNVM,Non-CPP
10,LVVLGKLYGRKKRRQRRR,CPP
11,AITFYPFAPNQITCIHE,Non-CPP
12,AGYLLGKTNLKALAALAKKIL,CPP
13,LIRLWSHLIHIWFQNRRLKWKKKC,CPP
14,PKKKRKVRRRRRRRPQMQQNVFQYPGAGMVPQGEANF,CPP
15,FKCRRWQWRMKKLGKRSKNKGFKEQAKSLLKWILD,CPP
16,DWLKAFYDKVAEKLKEAF,CPP
17,KWRRKLKKLRPKKKRKV,CPP
18,YSSQHLCGSNLVEALYMTCGRSGFYRPHD,Non-CPP
19,LSNTLAELYVREHLR,Non-CPP
20,NAKTRRHERRRKLAIER,CPP
21,YGRKKRRQRRTALDWSWLQTE,CPP
22,MLPRLICINDYEQHAKSVLPKSIYDYYRSGANDEE,Non-CPP
23,KKLALHALHLLALLWLHLAHLALKK,CPP
24,YGRKKRRQRRRGC,CPP

row,Substance,"class (CPP / Non-CPP), Test Set"
1,ACRGRGRGCGRGRGRCG,CPP
2,DFDMLRCMLGRVYYPCWQV,Non-CPP
3,APVTGAHMAYVDYWVPCQFTECSGEYVTEEYRKA,Non-CPP
4,ARRCSGSGSGCGSGSGSCGRR,CPP
5,LKKLAELAHKLLKLG,CPP
6,APKRKSGVSK,CPP
7,PVVHLTLRQEGDDFSR,Non-CPP
8,VTQADVGSALANLKIPGVGS,Non-CPP
9,FLGVVFKLASKVFPAVFGKV,Non-CPP
10,LNSAGYLLGKPKALAALAK,Non-CPP
11,RRLTLRQLLGLGSRRRRRSR,CPP
12,GHHSLKITDDPFDVPFPINDDHDS,Non-CPP
13,CREKAKKLFKKILKKL,CPP
14,TAMRAVDKLLLHLKKLFREGQFNRNFESIIICRDRT,CPP
15,IHSHWFVMVLKGKAARQRDDLWTHPCFPS,Non-CPP
16,CVKLNDGHFMPVLGFGTYAPPEVPRSKALEVTKLA,Non-CPP
17,GRKKHRQPPQC,Non-CPP
18,GRGDGPRRKKKKGPRRKKKKGPRR,CPP
19,GGTSSSDAQQSLQSFWPRVM,Non-CPP
20,WRRRYRRWRRRRRWRRRPRR,CPP
21,IDLNITMLEDHEFVP,Non-CPP
22,KMTRAQRRAAARRNRWTAR,CPP
23,KNLRRIIRKGIHIIKKYF,CPP
24,SWFASTGGRDSKIDVWSLVP,Non-CPP

row,Substance,"class (CPP / Non-CPP), Test Set"
1,ACRDRFRRCPADRRLCG,CPP
2,EILLPNSYNAYESYKYPGMFIALSK,Non-CPP
3,KKKQYTWIHHGVVEVD,Non-CPP
4,FLGALFKVASKVLPSVFCAITKKC,Non-CPP
5,VGALAVVVWLWLWLWAGSGPKKKRKVC,CPP
6,FVPFFTHSELQKIREKERNKGQ,Non-CPP
7,GWTNLSAQYLLGPPPGFSPFR,Non-CPP
8,FVPIFTHSELQKIREKERNKGQ,Non-CPP
9,IAARIKLRSRQHIKLRHL,Non-CPP
10,EILLPNNYNAYESYKYPGMFIALSK,Non-CPP
11,NSDMAHERKFMWQYNR,Non-CPP
12,EMCILIDENDNKIGADTKKNCHLNENIDKGLLHRA,Non-CPP
13,ICITRRSICMVTCNKEWPQNRNAHTFLI,Non-CPP
14,IVMVGDGGVGKSAMTIQFIQSTFV,Non-CPP
15,SHMMGEFWGDEDMCYRHQRSYET,Non-CPP
16,AGYLLGHINLHHLAHLHHIL,CPP
17,GWTNLSAGCLLGPPPGFSPFR,Non-CPP
18,CGGGRRRRRRRRRLLLL,CPP
19,YGDCLPHLKLCKENKDCCSKKCKRRGTNIEKRCR,CPP
20,RKGWFKAMKSIAKFIAKEKLKEHL,CPP
21,VKRFKKFFRKLKKLV,CPP

# Same assay, conditions: Spreadsheet S2: peptides collected from CellPPD, MLCPP, CPPsite 2.0, Lifetein and other publications; cited from earlier work
row,Substance,"class (CPP / Non-CPP), Train Set"
1,RRRRRRRGGKLAKLAKKLAKLAK,CPP
2,RRRRRRRGGIYLATALAKWALKQ,CPP
3,IYLATALAKWALKQGGRRRRRRR,CPP

# Same assay, conditions: cited from earlier work
row,Substance,"class (CPP / Non-CPP), Test Set"
1,WRWKKKKA,CPP
2,KIWFMNRRMK,Non-CPP
3,HHHHHHHHH,CPP
4,FLPFLAKILTGVL,Non-CPP
5,YRDRFAFQPH,CPP
6,VATIKSVSFYTRK,Non-CPP
7,QNLGNDWAVGHLM,Non-CPP
8,CARSKNKDC,CPP
9,YTFGLKTSFNVQ,CPP
10,CDAGRKQKC,CPP
11,IKRYLIKR,Non-CPP
12,WRWRWRWRW,CPP
13,QEHDYGNLDLCN,Non-CPP
14,SYNTF,Non-CPP
15,NTCTWLKYHS,CPP
16,RRLLRRLRR,CPP
17,NTCTWLKY,CPP
18,RKKAAA,CPP
19,RLLRLLRLL,CPP
20,MIEMAM,Non-CPP
21,VVLYKYRCYKVI,CPP
22,KRKRWHW,CPP
23,RRRRWWWW,CPP
24,QGARNYKCCFAWC,Non-CPP
25,CYFQNCPVG,Non-CPP
26,GSSGMIPFPRV,Non-CPP
27,MEPLWWANYDNTQ,Non-CPP
